Where two headings read alike, the source gives them in different places.
What was measured:
[1] = test system: C. difficile R20291 spores; experiment: C. difficile spore germination assay (optical density, OD580)
[2] = biological target: C. difficile spore germination; details: literature values; read-out: Ki, inhibition of germination; cited from earlier work
C. difficile 630 strain = details: literature; cited from earlier work
[3] = Clostridioides difficile, R20291SPORES, Table 4, 6 mM taurocholate, 12 mM glycine
[4] = Clostridioides difficile, R20291SPORES, Table 2, 6 mM taurocholate, 12 mM glycine
[5] = Clostridioides difficile, R20291SPORES, read-out: % Germination, Table 2, compound 125 μM, 6 mM taurocholate, 12 mM glycine, ± standard deviation
[6] = Clostridioides difficile, R20291SPORES, Table 3, 6 mM taurocholate, 12 mM glycine
[7] = Clostridioides difficile, R20291SPORES, read-out: % Germination, Table 3, compound 125 μM, 6 mM taurocholate, 12 mM glycine, ± standard deviation
[8] = Clostridioides difficile, R20291SPORES, read-out: % Germination (125 μM), Table 5, compound 125 μM, 6 mM taurocholate, 12 mM glycine, 100% indicates no inhibition
[9] = Table 4, compound 125 uM, 6 mM taurocholate, 12 mM glycine, ± standard deviation
[10] = Clostridioides difficile, R20291SPORES, Table 5, 6 mM taurocholate, 12 mM glycine
[11] = Table 5, compound 125 μM, 6 mM taurocholate, 12 mM glycine, 100% indicates no inhibition
[12] = Clostridioides difficile, R20291SPORES, read-out: IC50 against the R20291 strain, R20291 strain

Compound C[C@H](CCc1nc2ccccc2[nH]1)[C@H]1CC[C@H]2[C@@H]3[C@H](O)C[C@@H]4C[C@H](O)CC[C@]4(C)[C@H]3C[C@H](O)[C@]12C [Compound 46] has an IC50 [1, 3] of 6 ± 1 µM and an activity at 125 µM ([1]; Clostridioides difficile, R20291SPORES, read-out: % Germination, Table 4, compound 125 uM, 6 mM taurocholate, 12 mM glycine, ± standard deviation) of 23 ± 5%.
In the case of C[C@H](CCC(=O)N(C)c1ccccc1)[C@H]1CC[C@H]2[C@@H]3[C@H](O)C[C@@H]4C[C@H](O)CC[C@]4(C)[C@H]3C[C@H](O)[C@]12C [Compound 14], the IC50 [1, 4] is reported as 32 ± 5 µM and the activity at 125 µM [1, 5] is reported as 31 ± 2%.
Compound C[C@H](CCc1ncc2cc(F)ccc2n1)[C@H]1CC[C@H]2[C@@H]3[C@H](O)C[C@@H]4C[C@H](O)CC[C@]4(C)[C@H]3C[C@H](O)[C@]12C [Compound 33] has an IC50 [1, 6] of 28 ± 4 µM and an activity at 125 µM [1, 7] of 7 ± 3%.
For C[C@H](CCC(=O)O)[C@H]1CC[C@H]2[C@@H]3[C@H](O)C[C@@H]4C[C@H](O)CC[C@]4(C)[C@H]3CC[C@]12C [chenodeoxycholate], the Ki [2] is given as 378 µM.
For Cc1nc(CC[C@@H](C)[C@H]2CC[C@H]3[C@@H]4[C@H](O)C[C@@H]5C[C@H](O)CC[C@]5(C)[C@H]4C[C@H](O)[C@]23C)nc2ccccc12 [Compound 30], the IC50 [1, 6] was 37 ± 4 µM and the activity at 125 µM [1, 7] was 35 ± 5%.
In the case of COc1ccc2c(c1)N(C(=O)CC[C@@H](C)[C@H]1CC[C@H]3[C@@H]4[C@H](O)C[C@@H]5C[C@H](O)CC[C@]5(C)[C@H]4C[C@H](O)[C@]13C)CC2 [Compound 7], the activity at 125 µM [1, 5] is reported as 100%.
Work on C[C@H](CCC(=O)N1CCc2cc(F)ccc21)[C@H]1CC[C@H]2[C@@H]3[C@H](O)C[C@@H]4C[C@H](O)CC[C@]4(C)[C@H]3C[C@H](O)[C@]12C [Compound 4] yielded an IC50 [1, 4] of 0.4 ± 0.04 µM and an activity at 125 µM [1, 5] of 5 ± 3%.
Compound COc1ccc2c(c1)CCN(C(=O)CC[C@@H](C)[C@H]1CC[C@H]3[C@@H]4[C@H](O)C[C@@H]5C[C@H](O)CC[C@]5(C)[C@H]4C[C@H](O)[C@]13C)C2 [Compound 12] has an activity at 125 µM [1, 5] of 100%.
Compound C[C@H](CCC(=O)N1CCCc2ccccc21)[C@H]1CC[C@H]2[C@@H]3[C@H](O)C[C@@H]4C[C@H](O)CC[C@]4(C)[C@H]3C[C@H](O)[C@]12C [Compound 8] has an IC50 [1, 4] of 22 ± 3 µM and an activity at 125 µM [1, 5] of 17 ± 3%.
In the case of C[C@H](CCC(=O)Nc1ccccc1)[C@H]1CC[C@H]2[C@@H]3CC[C@@H]4C[C@H](O)CC[C@]4(C)[C@H]3CC[C@]12C [Compound 61], the activity at 125 µM [1, 8] is reported as 100%.
Compound Cc1ccc(F)cc1NC(=O)CC[C@@H](C)[C@H]1CC[C@H]2[C@@H]3CC[C@@H]4C[C@H](O)CC[C@]4(C)[C@H]3CC[C@]12C [Compound 64] has an activity at 125 µM [1, 8] of 100%.
With C[C@H](CCc1nc2ccccc2s1)[C@H]1CC[C@H]2[C@@H]3[C@H](O)C[C@@H]4C[C@H](O)CC[C@]4(C)[C@H]3C[C@H](O)[C@]12C [Compound 48] the “% Germination” value [1, 9] was 88 ± 5%.
Work on COc1ccccc1NC(=O)CC[C@@H](C)[C@H]1CC[C@H]2[C@@H]3[C@@H](O)C[C@]4(C)C[C@H](O)CC[C@]4(C)[C@H]3CC[C@]12C [Compound 66] yielded an activity at 125 µM [1, 8] of 100%.
For C[C@H](CCc1nc2ccccc2[nH]1)[C@H]1CC[C@H]2[C@@H]3[C@H](O)C[C@@H]4C[C@H](O)CC[C@]4(C)[C@H]3C[C@H](O)[C@]12C [Compound 45], the IC50 ([1]; Table 4, 6 mM taurocholate, 12 mM glycine) was 12 ± 7 µM and the “% Germination” value [1, 9] was 18 ± 2%.
Work on C[C@H](CCC(=O)Nc1cccc(F)c1)[C@H]1CC[C@H]2[C@@H]3CC[C@@H]4C[C@H](O)CC[C@]4(C)[C@H]3CC[C@]12C [Compound 63] yielded an activity at 125 µM [1, 8] of 100%.
With COc1ccccc1NC(=O)CC[C@@H](C)[C@H]1CC[C@H]2[C@@H]3CC[C@@H]4C[C@H](O)CC[C@]4(C)[C@H]3CC[C@]12C [Compound 58] the IC50 [1, 10] was 2.4 ± 0.3 µM and the “% Germination (125 μM)” value [1, 11] was 0.4 ± 3%.
C[C@H](CCc1ncc2cc(Cl)ccc2n1)[C@H]1CC[C@H]2[C@@H]3[C@H](O)C[C@@H]4C[C@H](O)CC[C@]4(C)[C@H]3C[C@H](O)[C@]12C [Compound 34] showed an activity at 125 µM [1, 7] of 59 ± 0.2%.
In the case of C[C@H](CCc1nc2ccccc2s1)[C@H]1CC[C@H]2[C@@H]3[C@H](O)C[C@@H]4C[C@H](O)CC[C@]4(C)[C@H]3C[C@H](O)[C@]12C [Compound 47], the IC50 [1, 3] is reported as 6 ± 4 µM and the “% Germination” value [1, 9] is reported as −6 ± 0.05%.
In the case of COc1ccccc1NC(=O)CC[C@@H](C)[C@H]1CC[C@H]2[C@@H]3CC[C@@H]4C[C@H](O)CC[C@]4(C)[C@H]3CC[C@]12C [Compound 62], the “% Germination (125 μM)” value [1, 11] is reported as 100%.
COc1ccc2cnc(CC[C@@H](C)[C@H]3CC[C@H]4[C@@H]5[C@H](O)C[C@@H]6C[C@H](O)CC[C@]6(C)[C@H]5C[C@H](O)[C@]34C)nc2c1 [Compound 37] showed an activity at 125 µM [1, 7] of 61 ± 5%.
Compound C[C@H](CCC(=O)N1CCc2c(Cl)cccc21)[C@H]1CC[C@H]2[C@@H]3[C@H](O)C[C@@H]4C[C@H](O)CC[C@]4(C)[C@H]3C[C@H](O)[C@]12C [Compound 2] has an activity at 125 µM [1, 5] of 95 ± 8%.
C[C@H](CCc1nc(-c2ccccc2)c2ccccc2n1)[C@H]1CC[C@H]2[C@@H]3[C@H](O)C[C@@H]4C[C@H](O)CC[C@]4(C)[C@H]3C[C@H](O)[C@]12C [Compound 31] gave an activity at 125 µM [1, 7] of 92 ± 4%.
In the case of C[C@H](CCc1nc2ccccc2o1)[C@H]1CC[C@H]2[C@@H]3[C@H](O)C[C@@H]4C[C@H](O)CC[C@]4(C)[C@H]3C[C@H](O)[C@]12C [Compound 51], the “% Germination” value [1, 9] is reported as 80 ± 4%.
For COc1cc2cnc(CC[C@@H](C)[C@H]3CC[C@H]4[C@@H]5[C@H](O)C[C@@H]6C[C@H](O)CC[C@]6(C)[C@H]5C[C@H](O)[C@]34C)nc2cc1OC [Compound 39], the activity at 125 µM [1, 7] was 78 ± 3%.
For C[C@H](CCc1nc2ccccc2c(=O)[nH]1)[C@H]1CC[C@H]2[C@@H]3[C@H](O)C[C@@H]4C[C@H](O)CC[C@]4(C)[C@H]3C[C@H](O)[C@]12C [Compound 43], the IC50 [1, 6] was 20 ± 11 µM and the activity at 125 µM [1, 7] was 32 ± 0.6%.
C[C@H](CCC(=O)N1CCc2cc(Cl)ccc21)[C@H]1CC[C@H]2[C@@H]3[C@H](O)C[C@@H]4C[C@H](O)CC[C@]4(C)[C@H]3C[C@H](O)[C@]12C [Compound 5] showed an activity at 125 µM [1, 5] of 70 ± 3%.
C[C@H](CCC(=O)N1CCc2cc(Br)ccc21)[C@H]1CC[C@H]2[C@@H]3[C@H](O)C[C@@H]4C[C@H](O)CC[C@]4(C)[C@H]3C[C@H](O)[C@]12C [Compound 6] gave an activity at 125 µM [1, 5] of 90 ± 3% and an IC50 [1, 12] of 0.4 µM.
Compound C[C@H](CCc1ncc2ccc(F)cc2n1)[C@H]1CC[C@H]2[C@@H]3[C@H](O)C[C@@H]4C[C@H](O)CC[C@]4(C)[C@H]3C[C@H](O)[C@]12C [Compound 35] has an activity at 125 µM [1, 7] of 57 ± 2%.
Cc1ccc2c(c1)CCCN2C(=O)CC[C@@H](C)[C@H]1CC[C@H]2[C@@H]3[C@H](O)C[C@@H]4C[C@H](O)CC[C@]4(C)[C@H]3C[C@H](O)[C@]12C [Compound 9] showed an activity at 125 µM [1, 5] of 100%.
Compound COc1ccccc1NC(=O)CC[C@@H](C)[C@H]1CC[C@H]2[C@@H]3[C@H](O)C[C@@H]4C[C@H](O)CC[C@]4(C)[C@H]3CC[C@]12C [Compound 54] has an IC50 [1, 10] of 6 ± 1 µM and an activity at 125 µM [1, 8] of 31 ± 2%.
In the case of C[C@H](CCC(=O)N1CCc2ccccc21)[C@H]1CC[C@H]2[C@@H]3[C@H](O)C[C@@H]4C[C@H](O)CC[C@]4(C)[C@H]3C[C@H](O)[C@]12C [Compound 1], the IC50 [1, 4] is reported as 1 ± 0.3 µM, the activity at 125 µM [1, 5] is reported as 4 ± 1% and the IC50 [1, 12] is reported as 1 µM.
For C[C@H](CCc1nc2ccccc2o1)[C@H]1CC[C@H]2[C@@H]3[C@H](O)C[C@@H]4C[C@H](O)CC[C@]4(C)[C@H]3C[C@H](O)[C@]12C [Compound 52], the “% Germination” value [1, 9] was 83 ± 8%.
Cc1ccc(F)cc1NC(=O)CC[C@@H](C)[C@H]1CC[C@H]2[C@@H]3[C@@H](O)C[C@@H]4C[C@H](O)CC[C@]4(C)[C@H]3CC[C@]12C [Compound 68] gave an activity at 125 µM [1, 8] of 100%.
For C[C@H](CCC(=O)Nc1ccccc1)[C@H]1CC[C@H]2[C@@H]3[C@H](O)C[C@@H]4C[C@H](O)CC[C@]4(C)[C@H]3CC[C@]12C [Compound 53], the IC50 [1, 10] is listed as 4 ± 0.5 µM, the activity at 125 µM [1, 8] is listed as 14 ± 0.6% and the “Activity against 630 strain” value (C. difficile 630 strain) is listed as “inactive up to the maximum tested concentration”.
C[C@H](CCc1ncc2ccc(Cl)cc2n1)[C@H]1CC[C@H]2[C@@H]3[C@H](O)C[C@@H]4C[C@H](O)CC[C@]4(C)[C@H]3C[C@H](O)[C@]12C [Compound 36] gave an activity at 125 µM [1, 7] of 89 ± 10%.

— patent US12220421B2, “Inhibitors of C. difficile spore germination” (THE BOARDS OF REGENTS OF THE NEVADA SYSTEM OF HIGHER …, priority 2021, dated 2025)
